Laboratory results reported in patent publication US20110071150A1 (priority 2009, published 2011).

System: Jurkat IL-2 Production
Assay: Jurkat IL-2 Production Assay
Type: cell-based
Settings: Homo sapiens, Jurkat cell (ATCC), 18-20 h incubation, PHA 5 μg/mL with 1% FBS, or PMA/Ionomycin with 30% FBS (table does not say which)
Procedure, shortened: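 Jurkat cells were exposed to compound (0.25% DMSO final) for 10 min, then stimulated for 18–20 h at 37 °C. The 1% FBS condition used 5 μg/mL PHA; the high-serum condition (30% FBS) used 50 ng/mL PMA plus 500 ng/mL ionomycin. IC50 was derived from IL-2 production.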

| SMILES | IC50 |
| --- | --- |
| COc1cc(C)c(-c2ccc3[nH]c(C4CCCCC4)cc3c2)cn1 [Example 224, 2-cyclohexyl-5-(6-methoxy-4-methylpyridin-3-yl)-1H-indole] | 83 nM |
| Cc1cc(S(=O)(=O)N(C)C)ccc1-c1ccc2[nH]c(-c3ccccc3F)c(C)c2c1 [Example 225, 4-(2-(2-fluorophenyl)-3-methyl-1H-indol-5-yl)-N,N,3-trimethylbenzenesulfonamide] | 153 nM |
| Cc1cc(S(=O)(=O)N(C)C)ccc1-c1ccc2[nH]c(-c3ccccc3)c(C)c2c1 [Example 226, N,N,3-trimethyl-4-(3-methyl-2-phenyl-1H-indol-5-yl)benzenesulfonamide] | 602 nM |
| Cc1cc(S(=O)(=O)N(C)C)ccc1-c1ccc2[nH]c(-c3c(F)cccc3F)c(C)c2c1 [Example 228, 4-[2-(2,6-Difluoro-phenyl)-3-methyl-1H-indol-5-yl]-3,N,N-trimethyl-benzenesulfonamide] | 115 nM |

Further molecules by falling IC50, results first:

| IC50 | SMILES |
| --- | --- |
| 284 nM | Cc1c(-c2c(F)cccc2F)[nH]c2ccc(-c3cc(C(F)(F)F)nn3C)cc12 [Example 227] |
| 164 nM | COc1cc(C)c(-c2ccc3[nH]c(-c4c(F)cccc4F)c(C)c3c2)cn1 [Example 229, 2-(2,6-Difluoro-phenyl)-5-(6-methoxy-4-methyl-pyridin-3-yl)-3-methyl-1H-indole] |
